Here are results for eleven compounds from patent US20150011466A1, “APJ Receptor Compounds” (priority 2012, published 2015).

Read-outs that look alike come from different tables or passages of the source. Where a SMILES comes first, the peptide text is derived from it. [ ]: non-standard residue; d: D form. The star is where a group is joined. Palmitoyl = CCCCCCCCCCCCCCCC(=O)*; Aib = CC(C)(N)C(=O)O

Data set [1] can be described thus: Histimine (% vs. 48/40).
In data set [2] the target is T1, APJ receptor (Homo sapiens, UniProt P35414).
T1 construct: expressed in transfected cells; host or cells: Human TRex cells (doxycycline-inducible)
T1 sequence (P35414 1-380): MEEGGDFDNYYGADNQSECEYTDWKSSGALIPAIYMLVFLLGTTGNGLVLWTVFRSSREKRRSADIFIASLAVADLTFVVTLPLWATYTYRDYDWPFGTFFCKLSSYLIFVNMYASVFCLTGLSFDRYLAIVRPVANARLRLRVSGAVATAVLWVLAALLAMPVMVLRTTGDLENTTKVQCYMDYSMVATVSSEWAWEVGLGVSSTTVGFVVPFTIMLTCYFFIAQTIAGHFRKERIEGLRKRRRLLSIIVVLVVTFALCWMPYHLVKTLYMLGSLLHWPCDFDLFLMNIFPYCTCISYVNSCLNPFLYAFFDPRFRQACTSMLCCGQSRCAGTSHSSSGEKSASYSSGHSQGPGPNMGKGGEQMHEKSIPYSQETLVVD
Description: HTRF cAMP assay, inhibition of NKH477 stimulated cAMP in Human TRex cells expressing APJ upon doxycycline induction (APJ-hTREX). Format: cell-based. The conditions noted are these: for percent intrinsic activity at 0.3 µM: read-out: % IA (@ 300 nM); for Ranking: class combining EC50 and % histamine. The gist of the method:
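Cells stimulated with NKH477 and cAMP measured by HTRF competitive immunoassay (cryptate anti-cAMP antibody, d2-labeled cAMP). APJ-hTREX cells induced with […] doxycycline and seeded overnight at 40 k/well.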
On the technique in general: In TR-FRET formats the signal depends on donor and acceptor labels being close together.

Where [3] appears, read: inhibition of NKH477 stimulated cAMP, APJ-hTREX cells, read-out: APJ-hTREX EC50.

Turning to `CCCCCCCCCCCCCCCC(=O)N[C@H](C(=O)N[C@H](C(=O)N[C@@H](Cc1ccccc1)C(=O)N[C@@H](CCCNC(=N)N)C(=O)N[C@@H](CO)C(=O)N[C@@H](CO)C(=O)N[C@@H](CCC(=O)O)C(=O)N[C@H](CCCCN)C(=O)N[C@@H](CCCNC(=N)N)C(=O)N[C@@H](CCCNC(=N)N)C(=O)NC(C)(C)C(=O)N[C@@H](C)C(=O)N[C@@H](CC(=O)O)C(=O)N[C@H](C(=O)N[C@@H](Cc1ccccc1)C(=O)N[C@H](C(N)=O)[C@@H](C)CC)[C@@H](C)CC)C(C)C)[C@@H](C)O` [Compound 63, TVFRSSEkRR(Aib)ADIFI] (Palmitoyl-TVFRSSE[dK]RR[Aib]ADIFI-NH2), the “Histimine (% vs. 48/40)” value in data set [1] was determined as 86%. Besides, in data set [2], the percent intrinsic activity at 0.3 µM is 61%.

As for `CCCCCCCCCCCCCCCC(=O)N[C@H](C(=O)N[C@H](C(=O)N[C@@H](Cc1ccccc1)C(=O)N[C@@H](CCCNC(=N)N)C(=O)N[C@@H](CO)C(=O)N[C@@H](CO)C(=O)N[C@@H](CCC(=O)O)C(=O)N[C@H](CCCCN)C(=O)N[C@@H](CCCNC(=N)N)C(=O)N[C@@H](CCCNC(=N)N)C(=O)N[C@@H](CO)C(=O)N[C@@H](C)C(=O)N[C@@H](CC(=O)O)C(=O)N[C@H](C(=O)NC(C)(C)C(=O)N[C@H](C(N)=O)[C@@H](C)CC)[C@@H](C)CC)C(C)C)[C@@H](C)O` [Compound 66] (Palmitoyl-TVFRSSE[dK]RRSADI[Aib]I-NH2; C-terminus assumed), the “Histimine (% vs. 48/40)” value in data set [1] is reported as 19%. For the same compound, in data set [2], the Ranking entry was “**** (EC50 101-500 nM and % histamine<35%)”; the percent intrinsic activity at 0.3 µM turned out to be 47%. Besides, the concentration giving a half-maximal response (EC50) in data set [2] (setting [3]) was 173 nM.

Regarding `CCCCCCCCCCCCCCCC(=O)N[C@H](C(=O)N[C@H](C(=O)N[C@@H](CC(=O)O)C(=O)N[C@@H](CCCNC(=N)N)C(=O)N[C@@H](CO)C(=O)N[C@@H](CO)C(=O)N[C@@H](CCC(=O)O)C(=O)N[C@H](CCCCN)C(=O)N[C@@H](CCCNC(=N)N)C(=O)N[C@@H](CCCNC(=N)N)C(=O)N[C@@H](CO)C(=O)N[C@@H](C)C(=O)N[C@@H](CC(=O)O)C(=O)N[C@H](C(=O)N[C@@H](Cc1ccccc1)C(=O)N[C@H](C(N)=O)[C@@H](C)CC)[C@@H](C)CC)C(C)C)[C@@H](C)O` [Compound 35] (Palmitoyl-TVDRSSE[dK]RRSADIFI-NH2; C-terminus assumed), the “Histimine (% vs. 48/40)” value in data set [1] is 4%. Further, in data set [2], a half-maximal effect (EC50) was put at 142 nM; the Ranking entry was “**** (EC50 101-500 nM and % histamine<35%)”; the percent intrinsic activity at 0.3 µM is 70%.

Turning to `CCCCCCCCCCCCCCCC(=O)N[C@H](C(=O)N[C@H](C(=O)N[C@@H](Cc1ccccc1)C(=O)N[C@@H](CCCNC(=N)N)C(=O)N[C@@H](CO)C(=O)N[C@@H](CO)C(=O)N[C@@H](CCC(=O)O)C(=O)N[C@H](CCCCN)C(=O)N[C@@H](CCCNC(=N)N)C(=O)N[C@@H](CCCNC(=N)N)C(=O)N[C@@H](CO)C(=O)N[C@@H](C)C(=O)N[C@@H](CC(=O)O)C(=O)N[C@H](C(=O)N[C@@H](Cc1ccccc1)C(=O)N[C@@H](CC(=O)O)C(N)=O)[C@@H](C)CC)C(C)C)[C@@H](C)O` [Compound 41] (Palmitoyl-TVFRSSE[dK]RRSADIFD-NH2), the “Histimine (% vs. 48/40)” value in data set [1] turned out to be 48%. Besides, in data set [2], the percent intrinsic activity at 0.3 µM came out at 60%.

For `CCCCCCCCCCCCCCCC(=O)N[C@H](C(=O)N[C@H](C(=O)N[C@@H](Cc1ccccc1)C(=O)N[C@@H](CCCNC(=N)N)C(=O)N[C@@H](CO)C(=O)N[C@@H](CO)C(=O)N[C@@H](CCC(=O)O)C(=O)N[C@H](CCCCN)C(=O)N[C@@H](CCCNC(=N)N)C(=O)N[C@@H](CCCNC(=N)N)C(=O)N[C@@H](CO)C(=O)N[C@@H](C)C(=O)N[C@@H](CC(=O)O)C(=O)N[C@H](C(=O)N[C@@H](CCC(N)=O)C(=O)N[C@H](C(N)=O)[C@@H](C)CC)[C@@H](C)CC)C(C)C)[C@@H](C)O` [Compound 31] (Palmitoyl-TVFRSSE[dK]RRSADIQI-NH2), the “Histimine (% vs. 48/40)” value in data set [1] is 68%. Also, the percent intrinsic activity at 0.3 µM in data set [2] was 67%.

Consider `CCCCCCCCCCCCCCCC(=O)N[C@H](C(=O)N[C@H](C(=O)N[C@@H](Cc1ccccc1)C(=O)N1CCC[C@H]1C(=O)N[C@@H](CO)C(=O)N[C@@H](CO)C(=O)N[C@@H](CCC(=O)O)C(=O)N[C@H](CCCCN)C(=O)N[C@@H](CCCNC(=N)N)C(=O)N[C@@H](CCCNC(=N)N)C(=O)N[C@@H](CO)C(=O)N[C@@H](C)C(=O)N[C@@H](CC(=O)O)C(=O)N[C@H](C(=O)N[C@@H](Cc1ccccc1)C(=O)N[C@H](C(N)=O)[C@@H](C)CC)[C@@H](C)CC)C(C)C)[C@@H](C)O` [Compound 44] (Palmitoyl-TVFPSSE[dK]RRSADIFI-NH2; C-terminus assumed), for which, in data set [1], the “Histimine (% vs. 48/40)” value stood at 7%. Besides, in data set [2], a half-maximal response (EC50) required 111 nM; the Ranking result was “**** (EC50 101-500 nM and % histamine<35%)”; the percent intrinsic activity at 0.3 µM came out at 74%.

Regarding `CCCCCCCCCCCCCCCC(=O)N[C@H](C(=O)N[C@H](C(=O)N[C@@H](Cc1ccccc1)C(=O)N[C@@H](CCCNC(=N)N)C(=O)N[C@@H](CO)C(=O)N[C@@H](CO)C(=O)N[C@@H](CCC(=O)O)C(=O)N[C@H](CCCCN)C(=O)N[C@@H](CCCNC(=N)N)C(=O)N[C@@H](CCCNC(=N)N)C(=O)N[C@@H](CC(=O)O)C(=O)N[C@@H](C)C(=O)N[C@@H](CC(=O)O)C(=O)N[C@H](C(=O)N[C@@H](Cc1ccccc1)C(=O)N[C@H](C(N)=O)[C@@H](C)CC)[C@@H](C)CC)C(C)C)[C@@H](C)O` [Compound 38] (Palmitoyl-TVFRSSE[dK]RRDADIFI-NH2; C-terminus assumed), the “Histimine (% vs. 48/40)” value in data set [1] was 13%. In data set [2], the Ranking entry is “* (EC50>500 nM and % histamine>35%)”; the percent intrinsic activity at 0.3 µM is 46%. Also, the EC50 in data set [2] (setting [3]) was 732 nM.

With `CCCCCCCCCCCCCCCC(=O)N[C@H](C(=O)N[C@H](C(=O)N[C@@H](Cc1ccccc1)C(=O)N[C@@H](CCCNC(=N)N)C(=O)N[C@@H](CO)C(=O)N[C@@H](CO)C(=O)N[C@@H](CCC(=O)O)C(=O)N[C@H](CCCCN)C(=O)N[C@@H](CCCNC(=N)N)C(=O)N1CCC[C@H]1C(=O)N[C@@H](CO)C(=O)N[C@@H](C)C(=O)N[C@@H](CC(=O)O)C(=O)N[C@H](C(=O)N[C@@H](Cc1ccccc1)C(=O)N[C@H](C(N)=O)[C@@H](C)CC)[C@@H](C)CC)C(C)C)[C@@H](C)O` [Compound 50] (Palmitoyl-TVFRSSE[dK]RPSADIFI-NH2), in data set [1], the “Histimine (% vs. 48/40)” value is given as 16%. For the same compound, the percent intrinsic activity at 0.3 µM in data set [2] is 41%.

Consider `CCCCCCCCCCCCCCCC(=O)N[C@H](C(=O)N[C@H](C(=O)N[C@@H](Cc1ccccc1)C(=O)N[C@@H](CCCNC(=N)N)C(=O)N[C@@H](CO)C(=O)N[C@@H](CO)C(=O)N[C@@H](CCC(=O)O)C(=O)N[C@H](CCCCN)C(=O)N[C@@H](CCCNC(=N)N)C(=O)N[C@@H](Cc1c[nH]cn1)C(=O)N[C@@H](CO)C(=O)N[C@@H](C)C(=O)N[C@@H](CC(=O)O)C(=O)N[C@H](C(=O)N[C@@H](Cc1ccccc1)C(=O)N[C@H](C(N)=O)[C@@H](C)CC)[C@@H](C)CC)C(C)C)[C@@H](C)O` [Compound 14] (Palmitoyl-TVFRSSE[dK]RHSADIFI-NH2; C-terminus assumed), for which the “Histimine (% vs. 48/40)” value in data set [1] is on record as 20%. For the same compound, in data set [2], the Ranking entry was “**** (EC50 101-500 nM and % histamine<35%)”; the percent intrinsic activity at 0.3 µM came to 74%. Besides, the EC50 in data set [2] (setting [3]) amounted to 253 nM.

In the case of `CCCCCCCCCCCCCCCC(=O)N[C@@H](CC(=O)O)C(=O)N[C@H](C(=O)N[C@@H](Cc1ccccc1)C(=O)N[C@@H](CCCNC(=N)N)C(=O)N[C@@H](CO)C(=O)N[C@@H](CO)C(=O)N[C@@H](CCC(=O)O)C(=O)N[C@H](CCCCN)C(=O)N[C@@H](CCCNC(=N)N)C(=O)N[C@@H](CCCNC(=N)N)C(=O)N[C@@H](CO)C(=O)N[C@@H](C)C(=O)N[C@@H](CC(=O)O)C(=O)N[C@H](C(=O)N[C@@H](Cc1ccccc1)C(=O)N[C@H](C(N)=O)[C@@H](C)CC)[C@@H](C)CC)C(C)C` [Compound 33] (Palmitoyl-DVFRSSE[dK]RRSADIFI-NH2; C-terminus assumed), in data set [1], the “Histimine (% vs. 48/40)” value is on record as 11%. Besides, in data set [2], the half-maximal effective concentration (EC50) was found to be 107 nM; the Ranking result was “**** (EC50 101-500 nM and % histamine<35%)”; the percent intrinsic activity at 0.3 µM amounted to 61%.

Regarding `CCCCCCCCCCCCCCCC(=O)N[C@H](C(=O)N[C@H](C(=O)N[C@@H](Cc1ccccc1)C(=O)N[C@@H](CCCNC(=N)N)C(=O)N[C@@H](CO)C(=O)N[C@@H](CO)C(=O)N[C@@H](CCC(=O)O)C(=O)N[C@H](CCCCN)C(=O)N[C@@H](CCCNC(=N)N)C(=O)N[C@@H](CCCNC(=N)N)C(=O)N[C@@H](CO)C(=O)N[C@@H](Cc1c[nH]cn1)C(=O)N[C@@H](CC(=O)O)C(=O)N[C@H](C(=O)N[C@@H](Cc1ccccc1)C(=O)N[C@H](C(N)=O)[C@@H](C)CC)[C@@H](C)CC)C(C)C)[C@@H](C)O` [Compound 15] (Palmitoyl-TVFRSSE[dK]RRSHDIFI-NH2), the “Histimine (% vs. 48/40)” value in data set [1] stood at 103%. Besides, the percent intrinsic activity at 0.3 µM in data set [2] is 77%.

By EC50 is commonly meant the concentration needed to bring the measured effect to its halfway point.
